Measurements: patent publication US20060247320A1, “Compounds for inhibiting KSP kinesin activity” (priority 2005, published 2006)

target: T1, KSP motor domain (Homo sapiens, UniProt P52732); experiment: biochemical; details: IC50 (nM), KSP inhibitory activity, end-point assay; class symbols (Table 1)
T1 sequence (P52732 18-359 limits assumed): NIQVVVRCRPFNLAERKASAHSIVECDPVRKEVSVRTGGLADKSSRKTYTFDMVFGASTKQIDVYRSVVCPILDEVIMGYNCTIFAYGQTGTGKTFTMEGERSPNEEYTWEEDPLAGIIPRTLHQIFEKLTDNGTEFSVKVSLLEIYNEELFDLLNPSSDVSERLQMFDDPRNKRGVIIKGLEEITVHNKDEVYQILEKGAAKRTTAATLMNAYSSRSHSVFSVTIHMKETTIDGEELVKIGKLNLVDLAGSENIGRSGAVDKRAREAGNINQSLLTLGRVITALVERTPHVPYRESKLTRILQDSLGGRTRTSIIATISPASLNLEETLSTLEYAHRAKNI

Row | SMILES | IC50
1 | CC(C)(C)C1CCc2nc3sc(COC(N)=O)cc3cc2C1 (stereo not drawn) [Example 147] | 1000 to 10000 nM
2 | CCOC(=O)c1cc2cc3c(nc2s1)CCC([Si](C)(C)C)C3 (stereo not drawn) [Example 188, Ethyl 5,6,7,8-Tetrahydro-6-(Trimethylsilyl)thieno[2,3b]quinoline-2-Carboxylate] | > 10000 nM

same assay, conditions: KSP inhibitory activity, end-point assay; class symbols (Table 1); read-out: IC50

Row | SMILES | IC50
3 | CC(C)(C)C1CCc2nc3c(cc2C1)c(N)c(C#N)[s+]3[O-] (stereo not drawn) [Example 126, 3-Amino-6-tert-butyl-1-oxo-5,6,7,8-tetrahydro-1H-1λ^4-thieno[2,3-b]quinoline-2-carbonitrile] | 1000 to 10000 nM
4 | CC(C)(C)C1CCc2nc3sc(C(N)=O)c(N)c3cc2C1 (stereo not drawn) [Example 118, 3-Amino-6-tert-butyl-5,6,7,8-tetrahydrothieno[2,3-b]quinoline-2-carboxylic acid amide] | 1000 to 10000 nM
5 | CC(C)(C)C1CCc2nc3sc(C(=O)NC(CNCCO)c4cccc(NC(=O)c5ccco5)c4)cc3cc2C1 (stereo not drawn) [Example 264, 6-tert-butyl-5,6,7,8-tetrahydrothieno[2,3-b]quinoline-2-carboxylic acid [1-{3-[(furan-2-carbonyl)amino]phenyl}-2-(2-hydroxyethylamino)ethyl]amide] | < 100 nM
6 | CC(C)(C)C1CCc2nc3sc(CC#N)cc3cc2C1 (stereo not drawn) [Example 148] | 1000 to 10000 nM
7 | CC(C)(C)C1CCc2nc3sc(C#N)c(Cl)c3cc2C1 (stereo not drawn) [Example 111, 6-tert-Butyl-3-chloro-5,6,7,8-tetrahydrothieno[2,3-b]quinoline-2-carbonitrile] | > 10000 nM
8 | CN(C)Cc1cc2cc3c(nc2s1)CCC(C(C)(C)C)C3 (stereo not drawn) [Example 152] | 1000 to 10000 nM
9 | CC(C)(C)C1CCc2nc3sc(C(=O)Nc4ccncc4N)cc3cc2C1 (stereo not drawn) [Example 226E] | 100 to 1000 nM
10 | CC(C)C1CCc2cc3c(N)c(C#N)sc3nc2C1 (stereo not drawn) [Example 51] | > 10000 nM
11 | CC(C)(C)[C@@H]1CCc2nc3sc(C(=O)N[C@H](CN)c4cccc(NCc5cccnc5)c4)cc3cc2C1 [Example 282] | < 100 nM
12 | COC(=O)C(CO)NC(=O)c1cc2cc3c(nc2s1)CCC(C(C)(C)C)C3 (stereo not drawn) [Example 94] | 100 to 1000 nM
13 | CC(C)(C)[C@@H]1CCc2nc3sc(C(=O)N[C@H](CN)c4cccc(NC(=O)c5ccc[nH]5)c4)cc3cc2C1 [Example 252] | < 100 nM
14 | Cc1cc(C(=O)Nc2cccc([C@@H](CN)NC(=O)c3cc4cc5c(nc4s3)CC[C@@H](C(C)(C)C)C5)c2)n[nH]1 [Example 242] | < 100 nM
15 | CCCC1CCc2cc3c(N)c(C#N)sc3nc2C1 (stereo not drawn) [Example 49] | > 10000 nM
16 | CC(C)(C)C1CCc2nc3sc(C(=O)N[C@H](CN)c4cccc(-c5ccccc5)c4)cc3cc2C1 (stereo partly drawn) [Example 211, 6-tert-butyl-5,6,7,8-tetrahydro-thieno[2,3-b]quinoline-2-carboxylic acid [(1S)-2-amino-1-biphenyl-3-yl-ethyl)-amide] | 100 to 1000 nM
17 | CC(C)(C)C1CCc2nc3sc(C(=O)N[C@H](C#N)c4ccccc4)cc3cc2C1 (stereo partly drawn) [Example 165] | > 10000 nM
18 | CCC(C)(C)C1CCc2nc3sc(C#N)cc3cc2C1 (stereo not drawn) [Example 59] | < 100 nM
19 | CCC(C)(C)C1CCc2c(cc3cc(C#N)sc3[n+]2[O-])C1 (stereo not drawn) [Example 71] | 1000 to 10000 nM
20 | CCCC1(CCC)CCc2nc3sc(C#N)c(N)c3cc2C1 [Example 16] | > 10000 nM
21 | CC(C)C1Cc2cc3cc(C#N)sc3nc2CC1C (stereo not drawn) [Example 208, 6-isopropyl-7-methyl-5,6,7,8-tetrahydro-thieno[2,3,-b]quinoline-2-carbonitrile] | 100 to 1000 nM
22 | CC(C)(C)C1CCc2nc3sc4c(=O)[nH]nnc4c3cc2C1 (stereo not drawn) [Example 119, 7-tert-Butyl-6,7,8,9-tetrahydro2H-11-thia-2,3,4,10-tetraazabenzo[b]fluoren-1-one] | 1000 to 10000 nM

Row | SMILES | IC50
23 | CC(C)(C)C1CCc2nc3sc(CNCc4cc5cc6c(nc5s4)CCC(C(C)(C)C)C6)cc3cc2C1 (stereo not drawn) [Example 150] | 1000 to 10000 nM
24 | CC(C)(C)[C@@H]1CCc2nc3sc(C(=O)N[C@H](CN)c4cccc(NC(=O)c5nscc5N)c4)cc3cc2C1 [Example 254] | 100 to 1000 nM
25 | CC(C)(C)C1CCc2nc3sc(C(=O)NC(CN)c4ccccc4)cc3cc2C1 (stereo not drawn) [Example 178] | < 100 nM
26 | CC1(C2CCc3nc4sc(C#N)c(N)c4cc3C2)CCCC1 (stereo not drawn) [Example 6] | 100 to 1000 nM
27 | Cn1cc(C(=O)Nc2cccc([C@@H](CN)NC(=O)c3cc4cc5c(nc4s3)CC[C@@H](C(C)(C)C)C5)c2)cn1 [Example 240] | < 100 nM
28 | Cn1ncc(C(=O)Nc2cccc([C@@H](CN)NC(=O)c3cc4cc5c(nc4s3)CC[C@@H](C(C)(C)C)C5)c2)c1C(F)(F)F [Example 245] | < 100 nM
29 | CC(CO)NC(=O)c1cc2cc3c(nc2s1)CCC(C(C)(C)C)C3 (stereo not drawn) [Example 76] | 1000 to 10000 nM
30 | Cc1[nH]ncc1C(=O)Nc1cccc([C@@H](CN)NC(=O)c2cc3cc4c(nc3s2)CC[C@@H](C(C)(C)C)C4)c1 [Example 243] | < 100 nM
31 | CCC(C1CCc2nc3sc(C#N)c(N)c3cc2C1)C(C)(C)C (stereo not drawn) [Example 29] | > 10000 nM
32 | CCC(C)(C)C1CCc2nc3sc(C(N)=O)cc3c(Cl)c2C1 (stereo not drawn) [Example 115] | 1000 to 10000 nM
33 | CC(C)(C)CC(C)(C)C1CCc2nc3sc(C#N)c(N)c3cc2C1 (stereo not drawn) [Example 11] | > 10000 nM
34 | CC(C)CC1CCc2nc3sc(C#N)c(N)c3cc2C1 (stereo not drawn) [Example 27] | 1000 to 10000 nM
35 | CC(C)(C)C1CCc2nc3sc(C(=O)NCCN4CCNCC4)cc3cc2C1 (stereo not drawn) [Example 197, 6-(1,1-Dimethylethyl)-5,6,7,8-Tetrahydro-N-[2-(1-Piperazinyl)ethyl]thieno[2,3-b]quinoline-2-Carboxamide] | 100 to 1000 nM
36 | CC(C)(C)[C@@H]1CCc2nc3sc(C(=O)N[C@H](CN)c4cccc(NC(=O)c5ccns5)c4)cc3cc2C1 [Example 235] | < 100 nM
37 | CC(C)C(C)C1CCc2nc3sc(C#N)c(N)c3cc2C1 (stereo not drawn) [Example 30] | 100 to 1000 nM
38 | CCC(C)(C)C1C=Cc2nc3sc(C(N)=O)cc3cc2C1 (stereo not drawn) [Example 114] | < 100 nM
39 | CC(C)(C)[C@@H]1CCc2nc3sc(C(=O)N[C@H](CN)c4cccc(NC(=O)c5ccn(-c6ccccc6)n5)c4)cc3cc2C1 [Example 241] | < 100 nM
40 | CC(C)(C)C1CCc2nc3sc(C(=O)NCCN4CCCCC4)cc3cc2C1 (stereo not drawn) [Example 198, 6-(1,1-Dimethylethyl)-5,6,7,8-Tetrahydro-N-[2-(1-Piperidinyl)ethyl]thieno[2,3-b]quinoline-2-Carboxamide] | 1000 to 10000 nM
41 | CC(C)(C)C1CCc2cc3c(N)c(C#N)sc3nc2CC1 (stereo not drawn) [Example 41] | 1000 to 10000 nM
42 | CCC(CN)NC(=O)c1cc2cc3c(nc2s1)CCC(C(C)(C)C)C3 (stereo not drawn) [Example 177] | < 100 nM

Row | SMILES | IC50
43 | CC(C)(C)C1CCc2nc3sc(-c4ncc(CO)[nH]4)cc3cc2C1 (stereo not drawn) [Example 183, [2-(6-tert-Butyl-5,6,7,8-tetrahydrothieno[2,3-b]quinolin-2-yl)-3H-imidazol-4-yl]methanol] | 1000 to 10000 nM
44 | Cc1oncc1C(=O)Nc1cccc([C@@H](CN)NC(=O)c2cc3cc4c(nc3s2)CC[C@@H](C(C)(C)C)C4)c1 [Example 233] | < 100 nM
45 | CC(C)(C)[C@@H]1CCc2nc3sc(C(=O)N[C@H](CN)c4cccc(NC(=O)c5cncc(N)n5)c4)cc3cc2C1 [Example 260] | < 100 nM
46 | CC1(C)Cc2nc3sc(C#N)c(N)c3cc2C(C)(C)C1 [Example 48] | > 10000 nM
47 | C[C@@H]1CNCCN1C(=O)Nc1cccc([C@@H](CN)NC(=O)c2cc3cc4c(nc3s2)CC[C@@H](C(C)(C)C)C4)c1 [Example 277] | < 100 nM
48 | CCC(C)(C)C1CCc2nc3sc(-c4nn[nH]n4)cc3cc2C1 (stereo not drawn) [Example 72] | 1000 to 10000 nM
49 | CC(C)(C)C1CCc2nc3sc(S(C)(=O)=O)c(O)c3cc2C1 (stereo not drawn) [Example 121, 6-tert-Butyl-2-methanesulfonyl-5,6,7,8-tetrahydrothieno[2,3-b]quinolin-3-ol] | > 10000 nM
50 | CC(C)(C)[C@@H]1CCc2nc3sc(C(=O)N[C@H](CN)c4cccc(NC(=O)c5csnn5)c4)cc3cc2C1 [Example 257] | < 100 nM
51 | CC(C)(C)C1CCc2nc3sc(CC(N)=O)cc3cc2C1 (stereo not drawn) [Example 149] | 1000 to 10000 nM
52 | C[C@@H]1CN(C(=O)Nc2cccc([C@@H](CN)NC(=O)c3cc4cc5c(nc4s3)CC[C@@H](C(C)(C)C)C5)c2)C[C@H](C)N1 [Example 279] | < 100 nM
53 | CC(C)(C)C1CCc2nc3sc(C#N)nc3cc2C1 (stereo not drawn) [Example 130, 7-tert-Butyl-5,6,7,8-tetrahydrothiazolo[5,4-b]quinoline-2-carbonitrile] | 1000 to 10000 nM
54 | Cn1ccc(C(=O)Nc2cccc([C@@H](CNCCO)NC(=O)c3cc4cc5c(nc4s3)CC[C@@H](C(C)(C)C)C5)c2)n1 [Example 268] | < 100 nM
55 | N#Cc1sc2nc3c(cc2c1N)C/C(=C/C1CC1)CC3 [Example 37] | > 10000 nM
56 | CC(C)(C)C1CCc2nc3sccc3cc2C1 (stereo not drawn) [Example 105, 6-tert-Butyl-5,6,7,8-tetrahydrothieno[2,3-b]quinoline] | 1000 to 10000 nM
57 | CC(C)(C)C1CCc2nc3sc(S(N)(=O)=O)cc3cc2C1 (stereo not drawn) [Example 123, 6-tert-Butyl-5,6,7,8-tetrahydrothieno[2,3-b]quinoline-2-sulfonic acid amide] | 100 to 1000 nM
58 | CCC(C)(C)C1CCc2nc3sc(C#N)c(N)c3c(SC)c2C1 (stereo not drawn) [Example 54] | > 10000 nM
59 | CC(C)(C)C1CCc2nc3sc(CCl)cc3cc2C1 (stereo not drawn) [Example 145] | 100 to 1000 nM
60 | N#Cc1sc2nc3c(cc2c1N)CC(C1CCCCC1)CC3 (stereo not drawn) [Example 18] | > 10000 nM

same assay, conditions: exact IC50 values, end-point assay (Table 2); read-out: IC50

Row | SMILES | IC50
61 | CCC(C)(C)C1CCc2nc3sc(C#N)cc3cc2C1 (stereo not drawn) [Example 59] | 55 nM
62 | CC(C)(C)C1CCc2nc3sc(C(=O)NC(CN)c4ccccc4)cc3cc2C1 (stereo not drawn) [Example 178] | 25 nM
63 | CC(C)(C)[C@@H]1CCc2nc3sc(C(=O)N[C@H](CN)c4cccc(NC(=O)c5ccns5)c4)cc3cc2C1 [Example 235] | 23 nM
64 | CCC(CN)NC(=O)c1cc2cc3c(nc2s1)CCC(C(C)(C)C)C3 (stereo not drawn) [Example 177] | 65 nM
65 | C[C@@H]1CNCCN1C(=O)Nc1cccc([C@@H](CN)NC(=O)c2cc3cc4c(nc3s2)CC[C@@H](C(C)(C)C)C4)c1 [Example 277] | 10 nM
66 | CC(C)(C)[C@@H]1CCc2nc3sc(C(=O)N[C@H](CN)c4cccc(NC(=O)c5csnn5)c4)cc3cc2C1 [Example 257] | 23 nM
